The record followed here is patent US11524966B1 (Valo Early Discovery, Inc., priority 2017, dated 2022).

The target of the first assay is T1, USP28 (His-tagged USP28-FL-mammalian) (Homo sapiens, UniProt Q96RU2).
T1 construct: Expression of USP28 (1-1077)-TEV-6*His (pTT5 vector); made in house; host or cells: Expi293f cells (pTT5 vector)
T1 sequence (Q96RU2 1-1077): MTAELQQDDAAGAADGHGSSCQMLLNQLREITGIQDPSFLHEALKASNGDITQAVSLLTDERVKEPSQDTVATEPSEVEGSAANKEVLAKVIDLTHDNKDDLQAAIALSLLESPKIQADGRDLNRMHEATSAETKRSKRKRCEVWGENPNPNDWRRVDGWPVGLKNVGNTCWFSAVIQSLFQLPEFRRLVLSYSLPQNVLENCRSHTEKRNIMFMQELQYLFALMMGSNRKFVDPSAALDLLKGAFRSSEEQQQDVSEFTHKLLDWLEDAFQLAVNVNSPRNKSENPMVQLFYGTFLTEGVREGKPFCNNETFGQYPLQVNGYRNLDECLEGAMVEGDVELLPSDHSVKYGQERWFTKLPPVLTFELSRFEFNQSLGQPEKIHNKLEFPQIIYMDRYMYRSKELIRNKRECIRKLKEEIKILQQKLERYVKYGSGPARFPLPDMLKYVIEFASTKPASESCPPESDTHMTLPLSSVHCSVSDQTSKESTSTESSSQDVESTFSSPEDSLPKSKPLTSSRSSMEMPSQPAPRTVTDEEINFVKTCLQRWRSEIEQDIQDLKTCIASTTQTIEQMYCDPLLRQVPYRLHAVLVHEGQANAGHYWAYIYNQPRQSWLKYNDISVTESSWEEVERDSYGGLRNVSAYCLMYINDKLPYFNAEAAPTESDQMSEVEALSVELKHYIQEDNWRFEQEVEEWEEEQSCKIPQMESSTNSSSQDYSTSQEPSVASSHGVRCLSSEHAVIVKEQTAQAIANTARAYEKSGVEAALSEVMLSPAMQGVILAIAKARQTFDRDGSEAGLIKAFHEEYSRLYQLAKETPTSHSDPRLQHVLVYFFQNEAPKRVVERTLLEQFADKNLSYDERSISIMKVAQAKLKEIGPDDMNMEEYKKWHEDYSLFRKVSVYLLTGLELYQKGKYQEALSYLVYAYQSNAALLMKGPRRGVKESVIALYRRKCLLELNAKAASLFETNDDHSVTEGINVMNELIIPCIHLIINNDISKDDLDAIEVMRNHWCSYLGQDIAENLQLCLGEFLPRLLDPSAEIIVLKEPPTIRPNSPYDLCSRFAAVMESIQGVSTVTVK
In words: Ubiquitin-Rhodamine 110 Assay for USP28 Activity, Example A-1(a). The format is biochemical. Conditions: Ubiquitin-Rhodamine 110 assay, Example A-1(a); read-out: USP28 A-1(a) IC50 range. Put shortly: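 Full-length His-tagged human USP28 (1-1077, Expi293f-expressed), […], with 25 nM Ub-Rh110 (<<Km) in pH 8.0 Tris buffer with BME, BGG, Triton X-100. 10-point dilutions (25 μM-1.3 nM), 45 min at room temperature, citric acid stop, fluorescence 485/535 nm; IC50 by 4-parameter fit.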
`Cc1cnc2c(N)c(C(=O)N[C@@H]3CCc4cc(N5CC6CCC(C5)N6)ccc4C3)sc2n1` (single isomer, unassigned) [Example 11-8]: the IC50 lay in the range of 200 to 2000 nM.
Still for that read-out and setting: the figure for `Cc1ccc2c(N)c(C(=O)N[C@@H]3CCc4cc(N5CCNCC5)cc(F)c4C3)sc2n1` (single isomer, unassigned) [Example 11-12] is 1 to 50 nM.
Still for that read-out and setting: with `Cc1ccc2c(N)c(C(=O)N[C@@H]3COc4cc(N5CCNCC5)cc(F)c4C3)sc2n1` [Example 10-5, (S)-3-amino-N-(5-fluoro-7-(piperazin-1-yl)chroman-3-yl)-6-methylthieno[2,3-b]pyridine-2-carboxamide] the figure was 200 to 2000 nM; with `Cc1ccc2c(N)c(C(=O)N[C@H]3CCc4cc(N5CC6CCC(C5)N6)ccc4C3)sc2n1` [Example 11-1, N-((2S)-6-(3,8-diazabicyclo[3.2.1]octan-3-yl)-1,2,3,4-tetrahydronaphthalen-2-yl)-3-amino-6-methylthieno[2,3-b]pyridine-2-carboxamide], 1 to 50 nM.
For the compound `[2H]C1([2H])NC([2H])([2H])C([2H])([2H])N(c2cc(F)c3c(c2)OC[C@H](NC(=O)c2sc4nc(C)ccc4c2N)C3)C1([2H])[2H]` [Example 10-4, (R)-3-amino-N-(5-fluoro-7-(piperazin-l-yl-2,2,3,3,5,5,6,6-d8)chroman-3-yl)-6-methylthieno[2,3-b]pyridine-2-carboxamide], the IC50 lay within 1 to 50 nM.
For the compound `Cc1nc2sc(C(=O)N[C@H]3CCc4cc(N5CC6CCC(C5)N6)ccc4C3)c(N)c2cc1F` (single isomer, unassigned) [Example 11-3], the IC50 is 50 to 200 nM.
Still for that read-out and setting: with `Cc1cnc2c(N)c(C(=O)N[C@H]3COc4cc(N5CCNCC5)cc(F)c4C3)sc2n1` [Example 10-10, (R)-7-amino-N-(5-fluoro-7-(piperazin-1-yl)chroman-3-yl)-3-methylthieno[2,3-b]pyrazine-6-carboxamide] the figure was 1 to 50 nM; with `Cc1cnc2c(N)c(C(=O)N[C@@H]3CCc4cc(N5CCNC[C@@H](O)C5)ccc4C3)sc2n1` (single isomer, unassigned) [Example 7-5], 50 to 200 nM.
Same read-out and setting: with `COc1ccc2c(N)c(C(=O)N[C@H]3COc4cc(N5CCNCC5)cc(F)c4C3)sc2n1` [Example 10-11, (R)-3-amino-N-(5-fluoro-7-(piperazin-1-yl)chroman-3-yl)-6-methoxythieno[2,3-b]pyridine-2-carboxamide] the figure was 1 to 50 nM; with `CCn1ccc2cc(C(=O)N[C@H]3CCc4cc(N5CC6CCC(C5)N6)ccc4C3)nnc21` (single isomer, unassigned) [Example 11-24], 200 to 2000 nM; with `Cc1ccc2c(N)c(C(=O)N[C@H]3COc4cc(C5(F)CCNCC5)ccc4C3)sc2n1` [Example 8-1, (R)-3-Amino-N-(7-(4-fluoropiperidin-4-yl)chroman-3-yl)-6-methylthieno[2,3-b]pyridine-2-carboxamide], 1 to 50 nM.
The same measure, in the same setting: with `Cc1cc(C(F)(F)F)c2c(N)c(C(=O)N[C@H]3COc4cc(N5CCNCC5)cc(F)c4C3)sc2n1` [Example 10-14, (R)-3-amino-N-(5-fluoro-7-(piperazin-1-yl)chroman-3-yl)-6-methyl-4-(trifluoromethyl)thieno[2,3-b]pyridine-2-carboxamide] the figure was 1 to 50 nM.
For `Cc1cnc2c(N)c(C(=O)N[C@H]3CCc4cc(N5CC6CCC(C5)N6)cc(F)c4C3)sc2n1` (single isomer, unassigned) [Example 11-13], the IC50 lay within 200 to 2000 nM.
For the compound `Cc1ccc2c(N)c(C(=O)N[C@@H]3CCc4cc(N5CC6CCC(C5)N6)ccc4C3)sc2n1` [Example 11-2, N-((2R)-6-(3,8-diazabicyclo[3.2.1]octan-3-yl)-1,2,3,4-tetrahydronaphthalen-2-yl)-3-amino-6-methylthieno[2,3-b]pyridine-2-carboxamide], the IC50 lay within 50 to 200 nM.
Still for that read-out and setting: the figure for `Cc1ccc2c(N)c(C(=O)N[C@H]3CCc4cc(N5CCN[C@@H](CO)C5)ccc4C3)sc2n1` (single isomer, unassigned) [Example 7-9] is 200 to 2000 nM; for `COc1ccc2c(N)c(C(=O)N[C@H]3CCc4cc(N5CC6CCC(C5)N6)ccc4C3)sc2n1` (single isomer, unassigned) [Example 11-5] it is 1 to 50 nM; for `Cc1ccc2c(N)c(C(=O)N[C@@H]3CCc4cc(N5CCN[C@@H](CO)C5)ccc4C3)sc2n1` (single isomer, unassigned) [Example 7-11] it is 50 to 200 nM.
Still for that read-out and setting: the figure for `Cc1cnc2c(N)c(C(=O)N[C@H]3CCc4cc(N5CC6CCC(C5)N6)ccc4C3)sc2n1` (single isomer, unassigned) [Example 11-7] is 50 to 200 nM.

The assay is the same for the next values; noted with them: Ubiquitin-Rhodamine 110 assay, format Example A-1(a); read-out: USP28 A-1(a) IC50 range.
Consider `Cc1ccc2c(N)c(C(=O)N[C@H]3CCc4cc(N5C6CNCC5C6)ccc4C3)sc2n1` (single isomer, unassigned) [Example 11-35], for which the IC50 was in the range of 1 to 50 nM.
Take `Cc1ccc2c(N)c(C(=O)N[C@H]3COc4c(ccc(N5CCNCC5)c4Cl)C3)sc2n1` [Example 13_7, (R)-3-amino-N-(8-chloro-7-(piperazin-1-yl)chroman-3-yl)-6-methylthieno[2,3-b]pyridine-2-carboxamide]: the concentration for half-maximal inhibition (IC50) was in the range of 1 to 50 nM.
On the same count and under the same terms, the figure for `Cc1ccc2c(N)c(C(=O)N[C@H]3CCc4c(ccc(N5CCNCC5)c4F)C3)sc2n1` (single isomer, unassigned) [Example 21-6] is 200 to 2000 nM; for `Cc1nc2sc(C(=O)N[C@@H]3CCc4c(C#N)c(N5CC6CCC(C5)N6)cc(F)c4C3)c(N)c2s1` (single isomer, unassigned) [Example 14-22] it is 200 to 2000 nM.
Regarding `Cc1ccc2c(N)c(C(=O)N[C@@H]3COc4c(ccc(N5CCNCC5)c4Cl)C3)sc2n1` [Example 13-8, (S)-3-amino-N-(8-chloro-7-(piperazin-1-yl)chroman-3-yl)-6-methylthieno[2,3-b]pyridine-2-carboxamide], the IC50 was 200 to 2000 nM.
Take `Cc1ccc2c(N)c(C(=O)N[C@H]3CCc4c(ccc(N5CC6CCC(C5)N6)c4F)C3)sc2n1` (single isomer, unassigned) [Example 21-2]: the 50% inhibitory concentration (IC50) lay in the range of 1 to 50 nM.
For `CO[C@H]1CN(c2ccc3c(n2)CC[C@H](NC(=O)c2sc4nc(C)cnc4c2N)C3)C[C@@H]1N` (single isomer, unassigned) [Example 23-1], the IC50 lay within 200 to 2000 nM.
Same read-out and setting: the figure for `Cc1ccc2c(N)c(C(=O)N[C@@H]3COc4cc(N5CCNCC5)c(Cl)cc4C3)sc2n1` (single isomer, unassigned) [Example 13-6] is 1 to 50 nM; for `Cc1ccc2c(N)c(C(=O)N[C@H]3COc4nc(N5CCNCC5)c(F)cc4C3)sc2n1` [Example 20, (R)-3-Amino-N-(6-fluoro-7-(piperazin-1-yl)-3,4-dihydro-2H-pyrano[2,3-b]pyridin-3-yl)-6-methylthieno[2,3-b]pyridine-2-carboxamide] it is 50 to 200 nM; for `Cc1ccc2c(N)c(C(=O)N[C@@H]3CCc4cc(N5CC6CCC(C5)N6)c(F)cc4C3)sc2n1` (single isomer, unassigned) [Example 21-3] it is 1 to 50 nM.
Same read-out and setting: the figure for `CO[C@H]1CN(c2ccc3c(n2)CC[C@H](NC(=O)c2sc4nc(C)cc(C)c4c2N)C3)C[C@@H]1N` [Example 23-3, 3-amino-N-[(6S)-2-[(3S,4S)-3-amino-4-methoxypyrrolidin-1-yl]-5,6,7,8-tetrahydroquinolin-6-yl]-4,6-dimethylthieno[2,3-b]pyridine-2-carboxamide] is 50 to 200 nM; for `Cc1ccc2c(N)c(C(=O)N[C@H]3CCc4cc(N5CCNCC5)c(F)cc4C3)sc2n1` (single isomer, unassigned) [Example 21-8] it is 200 to 2000 nM.
The same measure, in the same setting: the figure for `Cc1ccc2c(N)c(C(=O)N[C@@H]3CCc4c(ccc(N5CC6CCC(C5)N6)c4F)C3)sc2n1` (single isomer, unassigned) [Example 21-1] is 50 to 200 nM.
In the case of `Cc1ccc2c(N)c(C(=O)N[C@@H]3CCc4c(F)c(N5CC6CCC(C5)N6)cc(F)c4C3)sc2n1` (single isomer, unassigned) [Example 22-6], the half-maximal inhibitory concentration (IC50) was 200 to 2000 nM.

As usually defined, the IC50 is the point on the concentration scale where inhibition reaches its midpoint.
